Assay results from patent US4667030A, “Hydrazide succinimide derivatives of antineoplastic indole-dihydroindole alkaloids” (priority 1985, dated 1987).
≈ marks a conversion by molar mass, not a printed value. Counter-ions that a name gives are not always drawn.

Tests used:
[1] = tested on: vincristine-resistant leukemias; settings: common neoplasms including germ-cell tumors; cited from earlier work
[2] = tested on: CCRF-CEM, a human acute lymphoblastic leukemia cell line; test: CCRF-CEM cytotoxicity screen (cytostatic activity); type: cell-based; settings: for IC50: Homo sapiens, read-out: IC50 (50% minimum inhibitory concentration)
Protocol: The compounds of this invention have utility as anti-neoplastic compounds active against transplanted tumors in mice. They also have […]. As evidence of such utility, the cytostatic activity of the compounds was measured by standard procedures against CCRF-CEM, a human acute lymphoblastic leukemia cell line. In the table, column 1 gives the name of the compound, and column 2 the 50% minimum inhibitory concentration of the drug from column 1 in mcg./ml.

6C3HED lymphosarcoma = test: In vivo test, transplanted 6C3HED lymphosarcoma in mice; settings: for % INHIBITION / In vivo test: Toxic: 6C3HED; for activity against transplanted tumor: 6C3HED lymphosarcoma, mice
[3] = tested on: X-5563 plasma cell myeloma; test: In vivo test, transplanted X-5563 plasma cell myeloma in mice; settings: for activity against transplanted tumor: X-5563 plasma cell myeloma, mice
C-26 colon carcinoma = test: In vivo test, transplanted C-26 colon carcinoma in mice; settings: for activity against transplanted tumor: C-26 colon carcinoma, mice
B-16 Sub.C. melanoma = test: In vivo test, transplanted B-16 Sub.C. melanoma in mice; settings: for activity against transplanted tumor: B-16 Sub.C. melanoma, mice

## CC[C@]1(O)C[C@@H]2CN(CCc3c([nH]c4ccccc34)[C@@](C(=O)OC)(c3cc4c(cc3OC)N(C)[C@H]3[C@@](O)(C(N)=O)[C@H](O)[C@]5(CC)C=CCN6CC[C@]43[C@@H]65)C2)C1 [vindesine, 4-desacetyl VLB 3-carboxamide]
[1]
  effectiveness in treating leukemias and neoplasms: effective in treating some vincristine-resistant leukemias in addition to many common neoplasms including germ-cell tumors

## CC[C@H]1C[C@@H]2CN(CCc3c([nH]c4ccccc34)[C@@](C(=O)OC)(c3cc4c(cc3OC)N(C)[C@H]3[C@@](O)(C(=O)NN5C(=O)CCC5=O)[C@H](O)[C@]5(CC)C=CCN6CC[C@]43[C@@H]65)C2)C1 [4'-deoxy-4-desacetylleurosidine 3-carboxhydrazide N^2-succinimide sulfate]
[2]
  IC50: 0.075 µg/mL

## CC[C@]1(O)C[C@@H]2CN(CCc3c([nH]c4ccccc34)[C@@](C(=O)OC)(c3cc4c(cc3OC)N(C)[C@H]3[C@@](O)(C(=O)NN5C(=O)CCC5=O)[C@H](OC(=O)CCC(=O)O)[C@]5(CC)C=CCN6CC[C@]43[C@@H]65)C2)C1 [4-Succinoyl VLB 3-carboxhydrazide N^2-succinimide]
[2]
  IC50: 0.5 µg/mL (≈ 0.526 µM)

## CCC(=O)O[C@@H]1[C@]2(CC)C=CCN3CC[C@@]4(c5cc([C@@]6(C(=O)OC)C[C@H]7CN(CCc8c6[nH]c6ccccc86)C[C@](O)(CC)C7)c(OC)cc5N(C)[C@H]4[C@@]1(O)C(=O)NN1C(=O)CCC1=O)[C@@H]32 [4-Propionyl VLB 3-carboxhydrazide N^2 --succinimide sulfate]
6C3HED lymphosarcoma; i.v. x 1, 1.25 mg/kg
  % INHIBITION: 100%
6C3HED lymphosarcoma; i.v. x 1, 2.5 mg/kg
  % INHIBITION: 100%
6C3HED lymphosarcoma; i.v. x 1, 5 mg/kg
  In vivo test: Toxic: Toxic
[2]
  IC50: 0.01 µg/mL

## CC[C@]1(O)C[C@@H]2CN(CCc3c([nH]c4ccccc34)[C@@](C(=O)OC)(c3cc4c(cc3OC)N(C)[C@H]3[C@@](O)(C(=O)NN5C(=O)CCC5=O)[C@H](O)[C@]5(CC)C=CCN6CC[C@]43[C@@H]65)C2)C1 [4-desacetyl VLB 3-carboxhydrazide N^2-succinimide]
[3]
  activity against transplanted tumor: outstanding activity
C-26 colon carcinoma
  activity against transplanted tumor: outstanding activity
6C3HED lymphosarcoma
  activity against transplanted tumor: outstanding activity
B-16 Sub.C. melanoma
  activity against transplanted tumor: outstanding activity

## CC[C@]1(O)C[C@@H]2CN(CCc3c([nH]c4ccccc34)[C@@](C(=O)OC)(c3cc4c(cc3OC)N(C)[C@H]3[C@@](O)(C(=O)NN5C(=O)CCCC5=O)[C@H](O)[C@]5(CC)C=CCN6CC[C@]43[C@@H]65)C2)C1 [4-desacetyl VLB 3-carboxhydrazide N^2-glutarimide]
[3]
  activity against transplanted tumor: outstanding activity
C-26 colon carcinoma
  activity against transplanted tumor: outstanding activity
6C3HED lymphosarcoma
  activity against transplanted tumor: outstanding activity
B-16 Sub.C. melanoma
  activity against transplanted tumor: outstanding activity

## VLB 3-carboxhydrazide N^2 --succinimide sulfate
[3]; X5563, i.v. 1 & 7, dose 0.25
  % INHIBITION: 25%
[3]; X5563, i.v. 1 & 7, dose 0.5
  % INHIBITION: 30%
[3]; X5563, i.v. 1 & 7, dose 1
  % INHIBITION: 59%
[3]; X5563, i.v. 1 & 7, dose 2
  % INHIBITION: 94%
[3]; X5563, i.v. 1 & 7, dose 4
  In vivo test: Toxic: Toxic
C-26 colon carcinoma; C-26, i.v. 1 & 7, dose 0.25
  % INHIBITION: 0%
C-26 colon carcinoma; C-26, i.v. 1 & 7, dose 0.5
  % INHIBITION: 0%
C-26 colon carcinoma; C-26, i.v. 1 & 7, dose 1
  % INHIBITION: 50%
C-26 colon carcinoma; C-26, i.v. 1 & 7, dose 2
  % INHIBITION: 73%
C-26 colon carcinoma; C-26, i.v. 1 & 7, dose 4
  In vivo test: Toxic: Toxic
6C3HED lymphosarcoma; i.v. x 1, 0.0625 mg/kg
  % INHIBITION: 11%
6C3HED lymphosarcoma; i.v. x 1, 0.125 mg/kg
  % INHIBITION: 94%
6C3HED lymphosarcoma; i.v. x 1, 0.25 mg/kg
  % INHIBITION: 100%
6C3HED lymphosarcoma; i.v. x 1, 0.5 mg/kg
  % INHIBITION: 100%
6C3HED lymphosarcoma; i.v. x 1, 1 mg/kg
  % INHIBITION: 100%
6C3HED lymphosarcoma; i.v. x 1, 2 mg/kg
  In vivo test: Toxic: Toxic
6C3HED lymphosarcoma; i.v. x 1, 4 mg/kg
  In vivo test: Toxic: Toxic
B-16 Sub.C. melanoma; B-16 Sub. C., i.v. 1 & 7, dose 0.5
  % INHIBITION: 51%
B-16 Sub.C. melanoma; B-16 Sub. C., i.v. 1 & 7, dose 1
  % INHIBITION: 82%
B-16 Sub.C. melanoma; B-16 Sub. C., i.v. 1 & 7, dose 2
  % INHIBITION: 91%
B-16 Sub.C. melanoma; B-16 Sub. C., i.v. 1 & 7, dose 4
  In vivo test: Toxic: Toxic
B-16 Sub.C. melanoma; B-16 Sub. C., i.v. 1 & 7, dose 25 (so in the source)
  % INHIBITION: 8%
[2]
  IC50 (50% minimum inhibitory concentration): 0.01 µg/mL

## CC[C@]1(O)C[C@@H]2CN(CCc3c([nH]c4ccccc34)[C@@](C(=O)OC)(c3cc4c(cc3OC)N(C)[C@H]3[C@@](O)(C(=O)NN5C(=O)CCC5=O)[C@H](O)[C@]5(CC)C=CCN6CC[C@]43[C@@H]65)C2)C1 [4-Desacetyl VLB 3-carboxhydrazide N^2 --succinimide sulfate]
6C3HED lymphosarcoma; i.v. x 1, 1.25 mg/kg
  % INHIBITION: 100%
6C3HED lymphosarcoma; i.v. x 1, 2.5 mg/kg
  % INHIBITION: 100%
6C3HED lymphosarcoma; i.v. x 1, 5 mg/kg
  In vivo test: Toxic: Toxic
[2]
  IC50: 0.02 µg/mL

## CC[C@]1(O)C[C@@H]2CN(CCc3c([nH]c4ccccc34)[C@@](C(=O)OC)(c3cc4c(cc3OC)N(C)[C@H]3[C@@](O)(C(=O)NN5C(=O)CCCC5=O)[C@H](O)[C@]5(CC)C=CCN6CC[C@]43[C@@H]65)C2)C1 [4-Desacetyl VLB Hydrazide N^2 --Glutarimide Sulfate]
6C3HED lymphosarcoma; i.v. x 1, 0.0625 mg/kg
  % INHIBITION: 79%
6C3HED lymphosarcoma; i.v. x 1, 0.125 mg/kg
  % INHIBITION: 80%
6C3HED lymphosarcoma; i.v. x 1, 0.25 mg/kg
  % INHIBITION: 100%
6C3HED lymphosarcoma; i.v. x 1, 0.5 mg/kg
  % INHIBITION: 100%
6C3HED lymphosarcoma; i.v. x 1, 1 mg/kg
  % INHIBITION: 100%
6C3HED lymphosarcoma; i.v. x 1, 2 mg/kg
  In vivo test: Toxic: Toxic
6C3HED lymphosarcoma; i.v. x 1, 4 mg/kg
  In vivo test: Toxic: Toxic
6C3HED lymphosarcoma; i.v. x 1, 8 mg/kg
  In vivo test: Toxic: Toxic
